Results from patent publication US20050119301A1, “Treatment of restenosis” (priority 2001, published 2005).
“And” between values parts separate entries of the source, which are not always exact repeats. Equal values may be shown once. “Also recorded” adds a separate entry of the source.

Assays:
[1] = a-tocopheroxyl radical attenuating ability (TRAA) assay in micelles; type: biochemical; conditions: for TRAA, HTAC Micelle (positive) / TRAA, SDS Micelle (negative): 10 μM, relative rate constant of a-tocopheroxyl radical decay with/without sample, large = active
Protocol: The a-tocopheroxyl radical attenuating ability (TRAA) assay has been described in detail by Witting et al. (1997). Briefly, one hundred mM stock solutions of cetyltrimethyl ammonium chloride (HTAC) and sodium dodecyl sulphate (SDS) were prepared in phosphate buffer. Micellular dispersions of a-tocopherol were prepared by diluting an ethanolic solution of a-tocopherol (0.2 M) into micelles at a final vitamin concentration of […]. This resulting solution was sonicated for 15 sec at which time it was completely homogenous.
Aliquots of the a-tocopherol-containing micells were placed into the neck of an ESR flat cell […] and placed 0.5 m from a 125 W Osram HQL-Mercury fluorescent bulb used as a UV light source. To increase the light intensity, the frosted casing of the bulb was removed. Samples were irradiated for 3 min, followed by thorough mixing and subsequent transfer of the flat cell to the corresponding temperature-controlled Dewar insert in the ESR cavity, where the sample was allowed to equilibrate to 37° C. This procedure afforded a-tocopheroxyl radical (a-TO) between […] as estimated against a 10 mM TPDI nitroxide standard. ESR spectra were obtained at 9.41 GHz with modulation amplitude 1.0 G, microwave power […], and modulation frequency 12.5 kHz using a Bruker ESP 300 ESR spectrometer fitted with an X-band cavity.
After accumulation of the T=0 min spectrum, the flat cell arrangement containing a-TO was removed from the ESR cavity and the solution was gently coaxed into the neck of the flat cell under positive pressure. The compound of choice was then added to give a final concentration of 10 mM and the treated sample was replaced in the cavity and allowed to equilibrate to standard conditions, and sampling was resumed. The time-dependent decay of ESR signal intensity for a-TO was measured both in the presence and absence of the added co-antioxidant (10 mM) using a sweep time of 20.5 sec, averaging the output from three successive sweeps at each time point, and averaging the results of three separate experiments.
Results are expressed as the relative rate constant of decay of a-tocopheroxyl radicals in the presence of the test sample divided by the relative rate constant of decay of a-tocopheroxyl radicals in the absence of the test sample. TRAA approaching unity is considered to have poor synergistic activity, whereas active compounds show large values because they eliminate the a-tocopheroxyl radicals immediately upon mixing. Ascorbate was used as a positive control.

[2] = test system: Human umbilical vein endothelial cells; experiment: Endothelial cell proliferation assay; type: cell-based; conditions: Cpd. 8 1-10 mg/ml; for endothelial cell proliferation (in words): 3 days, two donors, Cpd. 5, 7, 12 0.01-10 mg/ml; for toxicity to endothelial cells: Cpd. 12 0.01-10 mg/ml
Protocol: Human umbilical vein endothelial cells between passage 1 and 3 were used. Cells were grown in gelatin coated flasks in medium 199 with Earle's Salts supplemented with 20% foetal calf serum, 25 mg/ml endothelial cell growth supplement and 25 mg/ml heparin. Cells from two different donors were used.
5×10^3 cells in […] growth medium were plated into gelatin coated microtitre wells. The test compounds were added at plating. The cells were then incubated for 3 days and cell number determined by a calorimetric assay (CellTiter96 Aqueous assay, Promega). Results were compared to a standard curve performed in each experiment. Two different endothelial cell isolates were used and the assays were performed on two different days. The effect of isoflavone derivatives on the proliferation of human umbilical vein endothelial cells are shown for donor No. 1 (FIG. 15) and donor No. 2 (FIG. 16).

rat thoracic aorta = experiment: Contractile curves to noradrenaline in rat isolated aortic rings (Protocol 1); conditions: for dose dependency of the antagonising action on noradrenaline contraction: 0.1 and 1 μg/ml; for antagonising the contractile response to noradrenaline (in words): order of potency at 1 μg/ml; for y max, Noradrenaline + Test compound (B): mean ± SEM; for y max Difference (A − B): noradrenaline alone minus noradrenaline + compound
Protocol: Male Sprague-Dawley rats (250±50 g) were gassed with 80% CO2 and 20% O2 until killed. The thoracic aorta was excised and quickly placed in ice-cold Krebs modified solution composed of NaCl […], […] 4.7 mM, MgSO4 7H2O 1.17 mM, NaHCO3 25 mM, KH2PO4 1.18 mM, CaCl2 2.5 mM, glucose 11 mM and EDTA 0.03 mM. It was then trimmed of fat and connective tissue and cut into 2-3 mm wide rings. Each ring was mounted on two parallel stainless steel hooks in a single water-jacketed 3 ml organ bath containing modified Krebs solution maintained at 37° C. and bubbled with 95% O2 plus 5% CO2. The lower hook was attached to a movable support leg and the upper hook to an FTO3 force transducer (Grass Scientific Instruments, Mitutoyo, Japan) for isometric recordings. Changes in force were amplified (Quadbridge amplifier, Scientific Concepts Inc., Victoria, Australia) and recorded on a MacLab 8E data acquisition system (Adinstruments Pty Ltd., NSW, Australia) linked to an Apple computer (Apple Computer Inc, Cupertina, Calif.). Rings were set at an initial tension of 2 g and allowed to equilibrate for 30 minutes after which time they were re-set to 2 g tension before the commencement of each experimental protocol.
Full concentration-contractile curves were obtained to noradrenaline (0.1 nM-[…]) in the absence and presence of β-estradiol (1 μg/ml); Cpd. 5 (0.1 and 1 μg/ml); Cpd. 7 (0.1 and 1 μg/ml); Cpd. 8 (0.1 and 1 μg/ml) and Cpd. 12 (1 μg/ml) and the vehicle equi-volume DMSO. Only one compound at any one concentration was tested on any one ring from any one animal.
Contractile responses are expressed in g tension (mean+standard error of the mean). Dilatory responses are expressed as a percentage of the contractile force generated by the pre-constricting agent used. Individual concentration-response curves for noradrenaline and acetylcholine±the interventions used were fitted to a logistic equation of the form […] where E is the response, M is the maximum response and K is the concentration eliciting 50% of the maximum response (ie neg log EC50).

LDL = LDL antioxidation test (CuCl2-initiated LDL oxidation, lag time); type: biochemical, human; conditions: Table 3, 10 μM; for Lag Time: control 20 min
LDL receptor = LDL receptor expression on HepG2 cells, [125I]-LDL specific binding; type: cell-based, human; conditions: 10 μM; for concentration dependence of LDL receptor expression: 50 nM, 500 nM; for LDL receptor expression, Experiment 3 / LDL receptor expression, Experiment 2 / LDL receptor expression, Experiment 1: 48 hours; for LDL receptor expression, Experiment 3: control 130 ± 18; for LDL receptor expression, Experiment 2: control 261 ± 57; for LDL receptor expression, Experiment 1: control 283 ± 32

SMILES | TRAA, HTAC Micelle (positive) [1] | endothelial cell proliferation (in words) [2] | dose dependency of the antagonising action on noradrenaline contraction (rat thoracic aorta) | antagonising the contractile response to noradrenaline (in words) (rat thoracic aorta) | y max, Noradrenaline + Test compound (B) (rat thoracic aorta; test compound 0.1 μg/ml) [g tension] | y max Difference (A − B) (rat thoracic aorta; test compound 0.1 μg/ml) [g tension] | y max, Noradrenaline + Test compound (B) (rat thoracic aorta; test compound 1 μg/ml) [g tension] | y max Difference (A − B) (rat thoracic aorta; test compound 1 μg/ml) [g tension] | % Increase in Time (LDL) [%] | Lag Time (LDL) [min] | TRAA, SDS Micelle (negative) [1] | concentration dependence of LDL receptor expression (LDL receptor) | LDL receptor expression, Experiment 3 (LDL receptor) | LDL receptor expression, Experiment 2 (LDL receptor) | LDL receptor expression, Experiment 1 (LDL receptor) | elimination of a-tocopheroxyl radicals (in words) [1] | toxicity to endothelial cells [2]
O=C1c2ccc(O)cc2OCC1c1ccc(O)cc1 (stereo not drawn) [Cpd. 5] | 5.3 and 5.4 | no apparent effect on endothelial cell proliferation | dose dependent | active but less potent than β-estradiol; also recorded: equipotent but less potent than Cpd. 12 | 1.50 ± 0.32 | 0.81 ± 0.25 | 1.13 ± 0.20 | 1.02 ± 0.24 | 0 | 20 | – | – | – | – | – | – | –
Oc1ccc(C2COc3cc(O)ccc3C2O)cc1 (stereo not drawn) [Cpd. 7] | 1.4 ± 0.5 | no appreciable antiproliferative action | dose dependent | active but less potent than β-estradiol; also recorded: equipotent but less potent than Cpd. 12 | 1.41 ± 0.13 | 0.25 ± 0.25 | 1.26 ± 0.34 | 1.38 ± 0.27 | 100 | 50 | 1.9 ± 0.2 | increased concentration-dependently | 194 ± 46 fmol LDL receptors per mg cell protein | 306 ± 70 fmol LDL receptors per mg cell protein | 332 ± 46 fmol LDL receptors per mg cell protein | – | –
Oc1ccc(C2=Cc3ccc(O)cc3OC2)cc1 [Cpd. 12] | 26.77 and 25.70 | inhibited cellular proliferation | – | comparable to β-estradiol; also recorded: most effective and comparable to 170-estradiol | – | – | 0.80 ± 0.36 | 2.27 ± 0.68 | >600 | >140 | Almost immediate | – | 174 ± 35 fmol LDL receptors per mg cell protein | 161 ± 35 fmol LDL receptors per mg cell protein | 290 ± 42 fmol LDL receptors per mg cell protein | induced high rate of decay and was active at eliminating a-tocopheroxyl radicals | did not cause toxicity
Oc1ccc(C2COc3cc(O)ccc3C2O)cc1 (stereo not drawn) [Cpd. 8] | 2.37 | inhibited cellular proliferation | dose dependent | active but less potent than β-estradiol; also recorded: the least potent | 1.34 ± 1.20 | 0.56 ± 0.15 | 0.86 ± 0.31 | 0.69 ± 0.28 | >600 | >140 | 1.26 and 1.58 | no clear concentration-dependent effect | 143 ± 34 fmol LDL receptors per mg cell protein | 273 ± 57 fmol LDL receptors per mg cell protein | 315 ± 24 fmol LDL receptors per mg cell protein | – | did not cause toxicity
